Consider four compounds from patent CN103285022A, “用于制备治疗多囊卵巢综合征的中药单体组合物及其制备方法” (Second Military Medical University SMMU, priority 2013, dated 2013).

The test system of one data set is liver [肝脏]. It counts as in vivo, rat. To be noted: for hepatotoxicity: conclusion, given together (27/200/100 mg/kg), 28 days.
For the next data set, the system named is kidney [肾脏]. The data set can be described thus: Kidney histopathology / renal safety. It counts as in vivo, rat. The conditions noted are these: conclusion; given together (27/200/100 mg/kg), 28 days.
A further data set concerns AR mRNA. In words: RT-PCR of ovarian tissue, AR mRNA. The data set is classed as in vivo, rat. The conditions noted are these: vs model group, 28 days gavage.
Data set [1] concerns polycystic ovary syndrome rat model [多囊卵巢综合征大鼠模型]. The data set can be described thus: Oestrous cycle by vaginal exfoliative cytology, DHEA-induced PCOS rats. The data set is classed as in vivo. To be noted: oral gavage 28 days, then 10 days of vaginal cytology, combination 27/200/100 mg/kg, spironolactone 20 mg/kg.
The test system of another data set is 3β-HSD mRNA. The data set can be described thus: RT-PCR of ovarian tissue, 3β-HSD mRNA. The data set is classed as in vivo, rat. The conditions noted are these: vs model group, 28 days gavage.
Data set [2] concerns polycystic ovary syndrome rat model [多囊卵巢综合征动物模型]. The data set can be described thus: Ovarian wet weight and ovarian coefficient. It counts as in vivo. To be noted: 28 days gavage; ovarian wet weight significantly lower than model group.
A further data set relates to CYP17 mRNA. The data set can be described thus: RT-PCR of ovarian tissue, CYP17 mRNA. The data set is classed as in vivo, rat. The conditions noted are these: vs model group, 28 days gavage.

As for `O=C(O)[C@H]1O[C@@H](Oc2cc3oc(-c4ccccc4)cc(=O)c3c(O)c2O)[C@H](O)[C@@H](O)[C@@H]1O` [黄芩苷, 黄芩苷(Baicalin)], the hepatotoxicity entry in the data set on liver [肝脏] is reported as “均不具有肝肾毒性”. Moreover, the nephrotoxicity entry in the data set with kidney [肾脏] is reported as “均不具有肝肾毒性”.

For the compound `CC(=O)S[C@@H]1CC2=CC(=O)CC[C@]2(C)[C@H]2CC[C@@]3(C)[C@@H](CC[C@@]34CCC(=O)O4)[C@H]12` [螺内酯, 螺内酯(Spironolactone)], in the data set on AR mRNA, the “AR mRNA expression in ovarian tissue” value is given as “显著降低”. Moreover, in data set [1], the “sexual cycle recovery rate” value is given as 80%. In the data set with 3β-HSD mRNA, the “3β-HSD mRNA expression in ovarian tissue” value is given as “显著降低”. The “increase of ovarian volume and wet weight in model rats, effect of treatment” value in data set [2] is “均可以逆转这种情况”. For the same compound, in the data set on liver [肝脏] (rat, in vivo), the liver histopathology result is “个别出现肝细胞脂肪样变性,胞浆透明度增加,细胞胞浆不清,部分细胞核崩解,肝板破坏,汇管区增粗”. Besides, the “CYP17 mRNA expression in ovarian tissue” value with CYP17 mRNA is “显著降低”.

In the case of `C[C@H]1COC2=C1C(=O)C(=O)c1c2ccc2c1CCCC2(C)C` [隐丹参酮, 隐丹参酮(Cryptotanshinone)], the hepatotoxicity entry in the data set with liver [肝脏] is reported as “均不具有肝肾毒性”. Besides, the nephrotoxicity entry in the data set on kidney [肾脏] is on record as “均不具有肝肾毒性”.

Turning to `O=c1c(O)c(-c2ccc(O)c(O)c2)oc2cc(O)cc(O)c12` [槲皮素, 槲皮素(Quercetin)], the hepatotoxicity entry with liver [肝脏] is “均不具有肝肾毒性”. Also, in the data set with kidney [肾脏], the nephrotoxicity entry is on record as “均不具有肝肾毒性”.
